Assay results taken from patent US9926294B2, “Pesticidally active heterocyclic derivatives with sulphur containing substituents” (Syngenta Participations AG, priority 2014, dated 2018).

Experiments:
Type in all cases: in vivo
[1] = tested on: Bemisia tabaci (cotton white fly); assay: Example B9: Bemisia tabaci adulticide contact activity, preventative; conditions: foliar, 168 h, adult white flies on sprayed cotton leaf discs, 7 DAT, read-out: activity (mortality, special effects)
Description: Example B9: Activity Against Bemisia tabaci (Cotton White Fly)
(Adulticide Contact Activity, Preventative), Adult
Cotton leaf discs were placed on agar in a 24-well microtiter plate and sprayed with test solutions. After drying, the leaf discs were infested with adult white flies. After an incubation period of 7 DAT, samples were checked for mortality and special effects (e.g. phytotoxicity).

[2] = tested on: Spodoptera littoralis (Egyptian cotton leaf worm); assay: Example B1: Spodoptera littoralis larvicide, feeding/residual contact, preventive (cotton leaf discs); conditions: foliar, 72 h, L1 larvae on sprayed cotton leaf discs, 3 days after treatment, read-out: activity (mortality, repellent effect, feeding behaviour, growth regulation)
Source text: Example B1: Activity Against Spodoptera littoralis (Egyptian Cotton Leaf Worm)
Larvicide, Feeding/Residual Contact Activity, Preventive
Cotton leaf discs were placed on agar in a 24-well microtiter plate and sprayed with test solutions.
After drying, the leaf discs were infested with 5 L1 larvae. The samples were checked for mortality, repellent effect, feeding behaviour, and growth regulation 3 days after treatment (DAT).

[3] = tested on: Myzus persicae (green peach aphid); assay: Example B7: Myzus persicae systemic/feeding activity, curative, mixed population (pea seedlings); conditions: 144 h, roots of infested pea seedlings in test solution, 6 days after introduction, read-out: activity (mortality, special effects on the plant)
Source text: Example B7: Activity Against Myzus persicae (Green Peach Aphid)
(Systemic/Feeding Activity, Curative), Mixed Population
Roots of pea seedlings, infested with an aphid population of mixed ages, were placed directly in the test solutions. 6 days after introduction, samples were checked for mortality and special effects on the plant.

[4] = tested on: Myzus persicae (green peach aphid); assay: Example B5: Myzus persicae feeding/residual contact, preventive, mixed population (sunflower leaf discs); conditions: foliar, 144 h, mixed population on sprayed sunflower leaf discs, 6 DAT, read-out: activity (mortality, special effects)
Description: Example B5: Activity Against Myzus persicae (Green Peach Aphid)
(Feeding/Residual Contact Activity, Preventive), Mixed Population
(§1) Sunflower leaf discs were placed on agar in a 24-well microtiter plate and sprayed with test solutions. After drying, the leaf discs were infested with an aphid population of mixed ages. After an incubation period of 6 DAT, samples were checked for mortality and special effects (e.g. phytotoxicity).

[5] = tested on: Euschistus heros (neotropical brown stink bug); assay: Example B10: Euschistus heros N-2 nymphs on soybean leaf; conditions: 120 h, N-2 nymphs on sprayed soybean leaf, 5 days after infestation
Description: Example B10: Activity Against Euschistus heros (Neotropical Brown Stink Bug)
(§2) Soybean leaf on agar in 24-well microtiter plates were sprayed with aqueous test solutions prepared from 10′000 ppm DMSO stock solutions. After drying the leaf were infested with N-2 nymphs. The samples were assessed for mortality 5 days after infestation.

[6] = tested on: Plutella xylostella (diamond back moth); assay: Example B3: Plutella xylostella larvicide, feeding/residual contact, preventive (artificial diet); conditions: 120 h, L2 larvae on artificial diet, 5 days incubation, read-out: activity (larval mortality, antifeedant, growth regulation)
Description: Example B3: Activity Against Plutella xylostella (Diamond Back Moth)
(Larvicide, Feeding/Residual Contact Activity, Preventive)
24-well microtiter plate (MTP) with artificial diet was treated with test solutions by pipetting. After drying, the MTPs were infested with L2 larvae (10-15 per well). After an incubation period of 5 days, samples were checked for larval mortality, antifeedant and growth regulation.

[7] = tested on: Diabrotica balteata (corn root worm); assay: Example B4: Diabrotica balteata larvae L2 on maize sprouts, feeding/contact, preventative; conditions: 120 h, L2 larvae on sprayed maize sprouts, 5 days incubation, read-out: activity (larval mortality, growth regulation)
Description: Example B4: Activity Against Diabrotica Balteata (Corn Root Worm)
(Larvae L2 on Maize Sprouts, Feeding/Contact, Preventative)
Maize sprouts, placed on an agar layer in 24 well micro titer plates were treated with test solutions by spraying. After drying, the MTPs were infested with L2 larvae (6-10 per well). After an incubation period of 5 days, samples were checked for larval mortality and growth regulation.

[8] = tested on: Thrips tabaci (onion thrips); assay: Example B8: Thrips tabaci mixed population, feeding/residual contact, preventive; conditions: foliar, 168 h, mixed population on sprayed sunflower leaf discs, 7 days incubation, read-out: activity (mortality, special effects)
Description: Example B8: Activity Against Thrips tabaci (Onion Thrips)
(Mixed Population, Feeding/Residual Contact Activity, Preventive)
as §1, with “a thrips” for “an aphid”, “7 days,” for “6 DAT,”

[9] = tested on: Spodoptera littoralis (Egyptian cotton leaf worm); assay: Example B2: Spodoptera littoralis systemic activity (lettuce on agar); conditions: 120 h, systemic via lettuce roots, 5 days after infestation, read-out: activity (mortality, repellent effect, feeding behavior, growth regulation)
Source text: Example B2: Activity Against Spodoptera littoralis (Egyptian Cotton Leaf Worm)
Test compounds were applied by pipette into 24 well plates and mixed with agar. Lettuce seeds were placed on the agar and the multi well plate is closed by another plate which contains also agar. After 7 days the roots have absorbed the compound and the lettuce has grown into the lid plate. The lettuce leaves were now cut off into the lid plate. Spodoptera eggs were pipetted through a plastic stencil on a humid gel blotting paper and the plate closed with it. The samples are checked for mortality, repellent effect, feeding behavior, and growth regulation 5 days after infestation.

[10] = tested on: Tetranychus urticae (two-spotted spider mite); assay: Example B12: Tetranychus urticae mixed population on bean leaf discs; conditions: foliar, 192 h, mixed population (mobile stages) on sprayed bean leaf discs, 8 days after infestation
Description: Example B12: Activity Against Tetranychus urticae (Two-Spotted Spider Mite)
as §2, with “Bean” for “Soybean”, “leaf discs” for “leaf”, “a mite population of mixed ages.” for “N-2 nymphs.”, “on mixed population (mobile stages) 8” for “5”

[11] = tested on: Myzus persicae (green peach aphid); assay: Example B6: Myzus persicae feeding activity sachet test, mixed population; conditions: 120 h, sachet test in sucrose solution, 5 days after infestation
Source text: Example B6: Activity Against Myzus persicae (Green Peach Aphid)
(Feeding Activity Sachet Test), Mixed Population
Test compounds were applied by pipette into 24 well plates and mixed with Sucrose solution. The plates were closed with a stretched Parafilm. A plastic stencil with 24 holes is placed onto the plate and infested pea seedlings were placed directly on the Parafilm. The infested plate is closed with a gel blotting paper and another plastic stencil and then turned upside down. 5 days after infestation the samples were checked on mortality. Application rate: 12.5 ppm.

[12] = tested on: Frankliniella occidentalis (western flower thrips); assay: Example B11: Frankliniella occidentalis mixed population, feeding/contact, preventative; conditions: foliar, 168 h, mixed population on sprayed sunflower leaf discs, 7 DAT, read-out: activity (mortality, special effects)
Description: Example B11: Activity Against Frankliniella occidentalis (Western Flower Thrips)
(Mixed Population, Feeding/Contact, Preventative)
as §1, with “are” for “were”, “a Frankliniella” for “an aphid”, “7” for “6”

CCS(=O)(=O)c1cccnc1-c1nnc(-c2cc(C(F)(F)F)ccn2)n1C [Compound P69]
mortality at 400 ppm [1]: > 80%
mortality at 400 ppm [2]: > 80%
mortality at 24 ppm [3]: ≥ 80%
mortality at 400 ppm [4]: > 80%
mortality at 400 ppm [5]: > 80%
mortality at 400 ppm [6]: > 80%
mortality at 400 ppm [7]: > 80%

CCS(=O)(=O)c1cc(C(F)(F)F)ccc1-c1nnc(-c2cc(C(F)(F)F)ccn2)n1C [Compound P60]
mortality at 400 ppm [1]: > 80%
mortality at 400 ppm [2]: > 80%
mortality at 24 ppm [3]: ≥ 80%
mortality at 400 ppm [8]: > 80%
mortality at 12.5 ppm [9]: ≥ 80%
mortality at 400 ppm [4]: > 80%
mortality at 400 ppm [6]: > 80%
mortality at 400 ppm [7]: > 80%

CCSc1cc(OC(F)F)cnc1-c1nnc(-c2ccc(C(F)(F)F)nc2)n1C [Compound P57]
mortality at 400 ppm [10]: ≥ 80%

CCSc1cc(C(F)(F)F)cnc1-c1nnc(-c2cc(C(F)(F)F)ccn2)n1C [Compound P1, 3-ethylsulfanyl-2-[4-methyl-5-[4-(trifluoromethyl)-2-pyridyl]-1,2,4-triazol-3-yl]-5-(trifluoromethyl)pyridine]
mortality at 400 ppm [1]: > 80%
mortality at 400 ppm [2]: > 80%
mortality at 400 ppm [8]: > 80%
mortality at 400 ppm [4]: > 80%
mortality at 400 ppm [6]: > 80%
mortality at 400 ppm [7]: > 80%

CCS(=O)(=O)c1cc(C(F)(F)F)cnc1-c1nnc(-c2ccccc2)n1C [Compound P11]
mortality at 400 ppm [10]: ≥ 80%
mortality at 400 ppm [7]: > 80%

CCSc1cc(C(F)(F)F)ccc1-c1nnc(-c2cc(C(F)(F)F)ccn2)n1C [Compound P59]
mortality at 400 ppm [1]: > 80%
mortality at 400 ppm [2]: > 80%
mortality at 400 ppm [8]: > 80%
mortality at 400 ppm [4]: > 80%
mortality at 400 ppm [6]: > 80%
mortality at 400 ppm [7]: > 80%

CCS(=O)(=O)c1cc(C(F)(F)F)cnc1-c1nnc(-c2cc(C(F)(F)F)ccn2)n1C [Compound P2, 3-ethylsulfonyl-2-[4-methyl-5-[4-(trifluoromethyl)-2-pyridyl]-1,2,4-triazol-3-yl]-5-(trifluoromethyl)pyridine]
mortality at 400 ppm [1]: > 80%
mortality at 400 ppm [2]: > 80%
mortality at 24 ppm [3]: ≥ 80%
mortality at 400 ppm [8]: > 80%
mortality at 12.5 ppm [9]: ≥ 80%
mortality at 400 ppm [4]: > 80%
mortality at 400 ppm [6]: > 80%
mortality at 12.5 ppm [11]: ≥ 80%
mortality at 400 ppm [7]: > 80%

CCS(=O)(=O)c1cc(C(F)(F)F)cnc1-c1nnc(-c2ccc(Cl)c(C(F)(F)F)c2)n1C [Compound P48]
mortality at 400 ppm [1]: > 80%
mortality at 400 ppm [2]: > 80%
mortality at 400 ppm [4]: > 80%
mortality at 400 ppm [5]: > 80%
mortality at 400 ppm [7]: > 80%

CCn1c(-c2cc(C(F)(F)F)ccn2)nnc1-c1ncc(C(F)(F)F)cc1S(=O)(=O)CC [Compound P65]
mortality at 400 ppm [2]: > 80%
mortality at 400 ppm [8]: > 80%
mortality at 12.5 ppm [9]: ≥ 80%
mortality at 400 ppm [7]: > 80%

CCS(=O)(=O)c1cc(C(F)(F)F)cnc1-c1nnc(-c2ccc(C(F)(F)F)nc2)n1C [Compound P6]
mortality at 400 ppm [10]: ≥ 80%
mortality at 24 ppm [3]: ≥ 80%

CCS(=O)(=O)c1cc(C(F)(F)F)cnc1-c1nnc(-c2cnc(C(F)(F)F)nc2)n1C [Compound P62]
mortality at 400 ppm [2]: > 80%
mortality at 400 ppm [4]: > 80%
mortality at 400 ppm [5]: > 80%
mortality at 400 ppm [6]: > 80%
mortality at 400 ppm [7]: > 80%

CCS(=O)(=O)c1cc(C(F)(F)F)cnc1-c1nnc(-c2cccnc2)n1C [Compound P42]
mortality at 400 ppm [12]: > 80%

CCS(=O)(=O)c1cc(C(F)(F)F)cnc1-c1nnc(-c2cc(F)cc(F)c2)n1C [Compound P29]
mortality at 400 ppm [10]: ≥ 80%
mortality at 400 ppm [6]: > 80%
